Laboratory results from patent US20200291018A1, “TAM KINASE INHIBITORS” (SYROS PHARMACEUTICALS, INC., priority 2017, published 2020).
Counter-ions that a name gives are not always drawn.

Legend:
TYRO3 = target: T1, TYRO3 (Homo sapiens, UniProt Q06418); assay: TR-FRET kinase activity assay, TYRO3; format: biochemical; conditions: ATP at Km, 60 minutes
T1 sequence (Q06418 41-890): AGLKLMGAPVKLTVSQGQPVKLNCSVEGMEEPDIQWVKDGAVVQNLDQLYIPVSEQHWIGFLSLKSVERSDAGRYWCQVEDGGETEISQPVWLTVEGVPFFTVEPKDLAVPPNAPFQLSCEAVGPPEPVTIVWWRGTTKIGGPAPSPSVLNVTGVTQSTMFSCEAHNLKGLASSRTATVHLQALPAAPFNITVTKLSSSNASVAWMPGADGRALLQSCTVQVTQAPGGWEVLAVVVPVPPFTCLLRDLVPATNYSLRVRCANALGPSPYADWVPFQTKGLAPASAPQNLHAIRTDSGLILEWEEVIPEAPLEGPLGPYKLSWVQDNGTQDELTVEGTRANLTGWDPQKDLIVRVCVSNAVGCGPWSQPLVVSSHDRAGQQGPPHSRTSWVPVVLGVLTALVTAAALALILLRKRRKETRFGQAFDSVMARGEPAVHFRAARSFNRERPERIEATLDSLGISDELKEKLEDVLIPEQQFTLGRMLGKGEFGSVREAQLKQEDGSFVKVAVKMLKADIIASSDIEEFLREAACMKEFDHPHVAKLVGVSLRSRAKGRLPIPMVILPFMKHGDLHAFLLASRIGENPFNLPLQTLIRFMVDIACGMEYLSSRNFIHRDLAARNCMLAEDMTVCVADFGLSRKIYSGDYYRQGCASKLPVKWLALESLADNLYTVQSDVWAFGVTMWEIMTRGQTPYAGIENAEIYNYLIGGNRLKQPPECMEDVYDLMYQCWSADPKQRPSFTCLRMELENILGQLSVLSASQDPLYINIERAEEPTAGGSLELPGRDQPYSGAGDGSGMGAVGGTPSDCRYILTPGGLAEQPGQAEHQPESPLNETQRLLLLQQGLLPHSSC
Description: (§1) IC50 values for compound inhibition of AXL, FLT3, MERTK and TYRO3 activity were determined using a TR-FRET activity assay. A peptide substrate with a fluorescent label is phosphorylated on a tyrosine by each enzyme, where the now phosphorylated product is bound by a Europium-labeled antibody specific to that phosphorylation site. The proximity between the antibody and the substrate gives a signal known as TR-FRET. As the enzyme is inhibited by compound, less phosphorylated peptide product is made, causing a decrease in overall signal.
(§2) Activity assays were performed in a 384-well, small volume, black microplates in an active enzyme volume of 10 uL and final developed volume of 20 uL. Final assay conditions are 50 mM HEPES pH 7.5, 10 mM MgCl2, 1 mM EGTA, 0.01% Brij 35 and 1 mM DTT, all at RT. Enzyme, substrate-labeled peptide and compound are mixed, and then the reaction is initiated with the addition of ATP at Km concentration for each enzyme. The reaction is allowed to run 60 minutes and then quenched with a 12.5 mM EDTA (ethylenediamine tetraacetic acid) solution. The plate is then developed with the addition of Europium-labeled antibody for a final volume of 20 uL and is then incubated for 30 minutes in darkness. Plates are read in a PHERASTAR® plate reader. Data are analyzed in GraphPad PRISM.

MERTK = target: T2, MERTK (Homo sapiens, UniProt Q12866); assay: TR-FRET kinase activity assay, MERTK; format: biochemical; conditions: for IC50: TR-FRET activity assay, ATP at Km, 60 minutes, read-out: Mer IC50; for Mer/Flt3 ratio (FLT3 IC50/Mer IC50): ratio calculated as FLT3 IC50/Mer IC50
T2 sequence (Q12866 21-999): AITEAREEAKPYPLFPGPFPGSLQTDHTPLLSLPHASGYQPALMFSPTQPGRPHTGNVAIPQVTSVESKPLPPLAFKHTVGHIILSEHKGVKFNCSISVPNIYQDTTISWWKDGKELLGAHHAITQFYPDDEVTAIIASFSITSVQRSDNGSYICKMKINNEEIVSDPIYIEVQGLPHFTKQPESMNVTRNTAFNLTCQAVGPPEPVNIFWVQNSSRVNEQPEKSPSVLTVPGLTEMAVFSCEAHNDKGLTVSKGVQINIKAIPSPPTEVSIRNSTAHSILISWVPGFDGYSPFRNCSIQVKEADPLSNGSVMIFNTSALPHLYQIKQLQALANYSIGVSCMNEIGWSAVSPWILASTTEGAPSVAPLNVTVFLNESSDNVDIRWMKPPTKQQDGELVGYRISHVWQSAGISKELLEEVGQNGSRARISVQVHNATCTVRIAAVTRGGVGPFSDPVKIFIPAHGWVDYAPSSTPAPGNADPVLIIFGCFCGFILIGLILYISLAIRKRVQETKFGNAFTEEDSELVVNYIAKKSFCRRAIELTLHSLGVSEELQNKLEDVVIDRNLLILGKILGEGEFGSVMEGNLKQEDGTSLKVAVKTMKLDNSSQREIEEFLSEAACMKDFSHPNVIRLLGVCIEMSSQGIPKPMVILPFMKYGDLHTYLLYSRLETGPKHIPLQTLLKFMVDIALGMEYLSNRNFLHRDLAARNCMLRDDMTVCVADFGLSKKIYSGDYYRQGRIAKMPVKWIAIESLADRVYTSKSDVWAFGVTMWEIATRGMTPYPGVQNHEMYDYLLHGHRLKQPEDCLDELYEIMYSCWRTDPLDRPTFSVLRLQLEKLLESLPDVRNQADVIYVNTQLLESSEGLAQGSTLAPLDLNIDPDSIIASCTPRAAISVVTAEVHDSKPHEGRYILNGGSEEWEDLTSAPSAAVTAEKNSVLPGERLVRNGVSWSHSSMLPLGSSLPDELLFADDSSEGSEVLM
Description: as §1, §2

Compound	IC50 (TYRO3)	IC50 (MERTK)	Mer/Flt3 ratio (FLT3 IC50/Mer IC50) (MERTK)
CCCCNc1cc2c(cn1)c(OC1CCNCC1)ncc2[C@H]1CC[C@H](O)CC1 [Compound 107]	≤ 100 nM	≤ 100 nM	++ (a ratio of between 10 and 100)
CCCCC[C@H](C)Nc1ncc2c(=O)n(C3CCOCC3)cc([C@H]3CC[C@H](O)CC3)c2n1 [Compound 108]	≤ 100 nM	≤ 100 nM	+++ (a ratio of >100)
CCCCNc1cc2c(cn1)c(=O)n(C1CCNCC1)cc2[C@H]1CC[C@H](O)CC1 [Compound 109, 6-(butylamino)-4-((1r,4r)-4-hydroxycyclohexyl)-2-(piperidin-4-yl)-2,7-naphthyridin-1(2H)-one hydrochloride]	≤ 100 nM	≤ 100 nM	++ (a ratio of between 10 and 100)
CC[C@@H](C)Nc1ncc2c(OC3CCN(C)CC3)ncc([C@H]3CC[C@H](O)CC3)c2n1 [Compound 195]	> 10000 nM	≤ 100 nM	+++ (a ratio of >100)
CCCC(C)Nc1ncc2c(=O)n([C@H]3CCN(C)C[C@@H]3F)cc([C@H]3CC[C@H](O)CC3)c2n1 (stereo partly drawn) [Compound 199]	≤ 100 nM	≤ 100 nM	+++ (a ratio of >100)
CCCC(C)Nc1ncc2c(=O)n([C@@H]3CCCN(C)C3)cc([C@H]3CC[C@H](O)CC3)c2n1 (stereo partly drawn) [Compound 200]	≤ 100 nM	≤ 100 nM	+++ (a ratio of >100)
CCCC(C)Nc1ncc2c(=O)n(C3CCN(C4COC4)CC3)cc([C@H]3CC[C@H](O)CC3)c2n1 (stereo partly drawn) [Compound 201]	≤ 100 nM	100 to 1000 nM	+++ (a ratio of >100)
O[C@H]1CC[C@H](c2cnc(OC3CCNCC3)c3cnc(Nc4cccc(Cl)c4)nc32)CC1 [Compound 205]	≤ 100 nM	≤ 100 nM	++ (a ratio of between 10 and 100)
CCc1cccc(Nc2ncc3c(OC4CCNCC4)ncc([C@H]4CC[C@H](O)CC4)c3n2)c1 [Compound 207]	100 to 1000 nM	≤ 100 nM	++ (a ratio of between 10 and 100)
CCC[C@@H](C)Nc1ncc2c(OC3CCN(C)CC3)ncc([C@H]3CC[C@H](O)CC3)c2n1 [Compound 208]	100 to 1000 nM	≤ 100 nM	+++ (a ratio of >100)
Cc1ccc(Cl)cc1Nc1ncc2c(OC3CCNCC3)ncc([C@H]3CC[C@H](O)CC3)c2n1 [Compound 209]	≤ 100 nM	100 to 1000 nM	NS (a ratio of ≤2.0)
O[C@H]1CC[C@H](c2cnc(OC3CCNCC3)c3cnc(NC4CCOCC4)nc32)CC1 [Compound 211]	100 to 1000 nM	≤ 100 nM	++ (a ratio of between 10 and 100)
O[C@H]1CC[C@H](c2cnc(OC3CCNCC3)c3cnc(N[C@@H]4CCOC4)nc32)CC1 [Compound 213]	100 to 1000 nM	≤ 100 nM	++ (a ratio of between 10 and 100)
CCCC(C)Nc1ncc2c(O[C@@H]3CCCN(C)C3)ncc([C@H]3CC[C@H](O)CC3)c2n1 (stereo partly drawn) [Compound 214]	≤ 100 nM	≤ 100 nM	++ (a ratio of between 10 and 100)
CCOc1ncc(C2CCN(C)CC2)c2nc(N[C@@H](C)CC)ncc12 [Compound 215]	≤ 100 nM	100 to 1000 nM	++ (a ratio of between 10 and 100)
O[C@H]1CC[C@H](c2cnc(OC3CCNCC3)c3cnc(N[C@H]4CCCOC4)nc32)CC1 [Compound 216]	100 to 1000 nM	100 to 1000 nM	++ (a ratio of between 10 and 100)
CC[C@H](C)Nc1ncc2c(NC3CCOCC3)ncc([C@H]3CC[C@H](O)CC3)c2n1 [Compound 217]	≤ 100 nM	≤ 100 nM	+++ (a ratio of >100)
CC[C@H](C)Nc1ncc2c(NC3CCN(C)CC3)ncc([C@H]3CC[C@H](O)CC3)c2n1 [Compound 220]	100 to 1000 nM	≤ 100 nM	+++ (a ratio of >100)

Second part, the molecule after the results:

IC50 (TYRO3)	IC50 (MERTK)	Mer/Flt3 ratio (FLT3 IC50/Mer IC50) (MERTK)	Compound
≤ 100 nM	≤ 100 nM	+++ (a ratio of >100)	CCC[C@@H](C)Nc1ncc2c(OC3CCNCC3)ncc([C@H]3CC[C@H](O)CC3)c2n1 [Compound 196]
≤ 100 nM	≤ 100 nM	++ (a ratio of between 10 and 100)	Cc1cccc(Nc2ncc3c(OC4CCNCC4)ncc([C@H]4CC[C@H](O)CC4)c3n2)c1 [Compound 197]
≤ 100 nM	100 to 1000 nM	+ (a ratio of >2.0 and <10)	Cc1cc(Cl)ccc1Nc1ncc2c(OC3CCNCC3)ncc([C@H]3CC[C@H](O)CC3)c2n1 [Compound 198]
≤ 100 nM	100 to 1000 nM	++ (a ratio of between 10 and 100)	CC(Nc1ncc2c(OC3CCNCC3)ncc([C@H]3CC[C@H](O)CC3)c2n1)c1ccncc1 (stereo partly drawn) [Compound 202]
≤ 100 nM	≤ 100 nM	+ (a ratio of >2.0 and <10)	CCCC(C)Nc1ncc2c(OC3CCNCC3)ncc([C@H]3CC[C@H](O)CC3)c2n1 (stereo partly drawn) [Compound 203]
100 to 1000 nM	≤ 100 nM	++ (a ratio of between 10 and 100)	CCC[C@@H](C)Nc1ncc2c(OC3CCNCC3)ncc([C@H]3CC[C@@H](O)CC3)c2n1 [Compound 204]
≤ 100 nM	≤ 100 nM	+ (a ratio of >2.0 and <10)	O[C@H]1CC[C@H](c2cnc(OC3CCNCC3)c3cnc(Nc4ccc(Cl)cc4)nc32)CC1 [Compound 206]
≤ 100 nM	≤ 100 nM	+ (a ratio of >2.0 and <10)	O[C@H]1CC[C@H](c2cnc(OC3CCNCC3)c3cnc(Nc4ccccc4)nc32)CC1 [Compound 210]
≤ 100 nM	≤ 100 nM	++ (a ratio of between 10 and 100)	CC(C)CNc1ncc2c(OC3CCNCC3)ncc([C@H]3CC[C@H](O)CC3)c2n1 [Compound 212]
100 to 1000 nM	100 to 1000 nM	+ (a ratio of >2.0 and <10)	C[C@@H](Nc1ncc2c(OC3CCNCC3)ncc([C@H]3CC[C@H](O)CC3)c2n1)c1ccccc1 [Compound 218]
